The results in this text go back to US7371864B2, “Crystalline forms of a factor Xa inhibitor” (Bristol-Myers Squibb Company, priority 2004, dated 2008).

Data set [1] can be described thus: Moisture sorption isotherms (VTI SGA-100 Symmetric Vapor Analyzer). Conditions: 25° C., 4-95% RH. Type of data set: physicochemical. As for the experimental part:
Moisture sorption isotherms for N-1 were collected in a VTI SGA-100 Symmetric Vapor Analyzer using about 10 mg sample. The sample was dried at 60° C. until the loss rate of 0.0005 wt %/min was obtained for 10 minutes. The sample was tested at 25° C. and 4, 5, 15, 25, 35, 45, 50, 65, 75, 85, and 95% RH. Equilibration at each RH was reached when the rate of 0.0003 wt %/min for 35 minutes or a maximum of 600 minutes was achieved.

Data set [2] is described as follows: Relative thermodynamic stability of crystalline forms. Type of data set: physicochemical.

For the compound `COc1ccc(-n2nc(C(C)(C)O)c3c2C(=O)N(c2ccc(-n4ccccc4=O)cc2)CC3)cc1` [Form N-1, 3-(1-hydroxy-1-methyl-ethyl)-1-(4-methoxy-phenyl)-6-[4-(2-oxo-2H-pyridin-1-yl)-phenyl]-1,4,5,6-tetrahydro-pyrazolo[3,4-c]pyridin-7-one], in data set [1], the “hygroscopicity from moisture sorption isotherms” value is reported as “essentially non-hygroscopic”. In addition, in data set [2] (all temperatures, inferred from Form N-3 melting ˜40° C. lower than Form N-1), the “stability relative to Form N-3 (monotropic relationship)” value was “more stable at all temperatures”. The “thermodynamic stability relative to other crystalline forms” value in data set [2] (room temperature) is “thermodynamically more stable form”.
